Data as given in article PMC7516806, “Hybrid Antimicrobial Peptide Targeting Staphylococcus aureus and Displaying Anti-infective Activity in a Murine Model” (Frontiers in Microbiology, 2020).
≈ marks a conversion by molar mass, not a printed value. Positions of bridges follow the written chain, without caps; N, C: chain ends. Residues, ends and D or L forms follow the SMILES beside them.

How the values were obtained:
E. coli K88 = conditions: MHB, 2–7 × 10^5 CFU/ml, 37°C, 24 h, no turbidity, at least three independent repeats
Outline: (§1)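 Peptides serially diluted in 0.01% acetic acid/0.2% BSA and mixed 1:1 with mid-log bacteria in MHB at 2–7 × 10^5 CFU/ml. Plates held at 37°C for 24 h. Broth with cells and broth alone served as controls; at least three independent repeats.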

E. coli K99 = conditions: MHB, 2–7 × 10^5 CFU/ml, 37°C, 24 h, no turbidity, at least three independent repeats
Outline: as §1

S. aureus ATCC 29213 [1] = assay: Time-dependent killing kinetics; format: cell-based, Staphylococcus aureus; conditions: six independent trials
Experimental: The logarithmic phase S. aureus ATCC 29213 cells were harvested by centrifugation at 1000 × g for 5 min, washed twice with PBS, and diluted to 2–7 × 10^5 CFU/mL. S. aureus was treated with AMPs at various concentrations, including 0.125, 0.25, 0.5, 1, and 2 × MIC. At various time intervals (5 s, 10 s, 30 s, 1 min, 5 min, 10 min, and 30 min), 50 μL of bacterial solution was diluted and plated on MHA plates. Bacterial colonies were counted after 24 h of incubation at 37°C. The results were carried out in six independent trials.

S. aureus ATCC 29213 [2] = assay: SEM and TEM characterization of membrane damage; format: cell-based, Staphylococcus aureus
Experimental: Bacterial membrane damage induced by the peptide was visualized using scanning electron microscopy (SEM). S. aureus ATCC 29213 was washed three times using PBS after growing to the mid-log phase and diluted to an OD600 = 0.2. The bacteria were incubated for 30 min with peptide, and the bacterial growth in PBS was used as the control. The cells were washed twice with PBS and fixed with 2.5% (w/v) glutaraldehyde at 4°C overnight. The bacterial cells were dehydrated with a graded series of ethanol (50, 70, 90, and 100%) for 10 min at each step. The samples were transferred to a mixture (v: v = 1:1) of alcohol and tert-butanol for 30 min and tert-butanol alone for 1 h. The dried bacterial specimens, which were obtained using a critical point dryer, were coated and visualized under a field emission scanning electron microscope (Hitachi S-4800, Japan).
The processing method of the samples for transmission electron microscopy (TEM) was the same as the treatment for SEM. The samples were then prefixed with 2.5% glutaraldehyde at 4°C overnight, post-fixed with osmium tetroxide for 70 min, and washed twice with PBS (pH 7.2). Subsequently, the samples were dehydrated in different concentrations of ethanol (50, 70, and 90%) for 8 min in series and 10 min in 100% ethanol twice and then transferred to a mixture (v:v = 1:1) of 100% ethanol and acetone for 10 min. […]

L. rhamnosus 1.0385 = assay: MIC, modified microtiter dilution; format: cell-based, Lactobacillus rhamnosus; conditions: 2–7 × 10^5 CFU/ml, 37°C, 24 h, no turbidity, at least three independent repeats
Excerpt: (§2) The experiment was repeated at least three times independently.

L. rhamnosus 1.0936 = assay: MIC, modified microtiter dilution; format: cell-based, Lactobacillus rhamnosus; conditions: 2–7 × 10^5 CFU/ml, 37°C, 24 h, no turbidity, at least three independent repeats
Excerpt: as §2

L. rhamnosus 7469 = assay: MIC, modified microtiter dilution; format: cell-based, Lactobacillus rhamnosus; conditions: 2–7 × 10^5 CFU/ml, 37°C, 24 h, no turbidity, at least three independent repeats
Excerpt: as §2

S. aureus 29213 [3] = assay: MIC, modified microtiter dilution; format: cell-based, Staphylococcus aureus; conditions: MHB, 2–7 × 10^5 CFU/ml, 37°C, 24 h, no turbidity, at least three independent repeats
Excerpt: as §2

S. aureus 25923 = assay: MIC, modified microtiter dilution; format: cell-based, Staphylococcus aureus; conditions: MHB, 2–7 × 10^5 CFU/ml, 37°C, 24 h, no turbidity, at least three independent repeats
Excerpt: as §2

[4] = tested on: Staphylococcus aureus 29213; assay: Propidium iodide uptake assay; format: cell-based; conditions: 0.5 × MIC, MIC and 2 × MIC; 10 μg/mL PI; ex 535 nm, em 617 nm
Experimental: Staphylococcus aureus 29213 was washed three times with buffer (5 mM HEPES, 5 mM glucose, pH 7.4) after the bacterium grew to the mid-log phase and then diluted to an OD600 = 0.05. Propidium iodide was then added to the final concentration of 10 μg/mL and incubated for 30 min at 4°C. The peptides were added to 12-well plates, which were filled with 2 mL of the cell suspension. An F-4500 fluorescence spectrophotometer (Hitachi, Japan) was employed to measure the fluorescence value at an excitation wavelength of 535 nm and an emission wavelength of 617 nm. Maximal augmentation was monitored, and the fluorescence of the mixture of bacteria and dye served as the blank control ([Morita et al., 2015]).

MRSA 43300 = format: cell-based, Staphylococcus aureus; conditions: MHB, 2–7 × 10^5 CFU/ml, 37°C, 24 h, no turbidity, at least three independent repeats
Excerpt: as §2

S. aureus 29213 [5] = assay: MIC in the presence of physiological salts; format: cell-based, Staphylococcus aureus; conditions: three independent repeats, unit not given in Table 4
Experimental: as §2
The MIC of peptides was determined in the presence of salts at physiological concentrations (150 mM NaCl, 4.5 mM KCl, 6 μM NH4Cl, 8 μM ZnCl2, 1 mM MgCl2, 2 mM CaCl2, and 4 μM FeCl3) as described previously ([Dong et al., 2014]). All experiments were performed three times independently.

**Q.** Which results are given for `CC(C)C[C@H](NC(=O)[C@H](CC(C)C)NC(=O)[C@H](Cc1c[nH]c2ccccc12)NC(=O)[C@H](Cc1c[nH]c2ccccc12)NC(=O)[C@H](Cc1c[nH]c2ccccc12)NC(=O)[C@H](CCCNC(=N)N)NC(=O)[C@@H]1CSSC[C@H](N)C(=O)N[C@@H](C)C(=O)N[C@@H](CO)C(=O)N[C@@H](Cc2ccc(O)cc2)C(=O)N[C@@H](Cc2ccccc2)C(=O)N1)C(N)=O` [Peptide S2] (H-CASYFCRWWWLL-NH2; disulfide 1-6; N-terminus assumed)?
**A.** MIC E. coli K88 (E. coli K88): >64 µM; MIC E. coli K99 (E. coli K99): >64 µM; bacterial reduction in S. aureus (S. aureus ATCC 29213 [1]; 0.5 × MIC, after 5 s of exposure, PBS, 2–7 × 10^5 CFU/mL): 2 log10; time of peptide exposure for 100% bacterial killing (S. aureus ATCC 29213 [1]; at 2 × MIC): 30 s; time of peptide exposure for 100% bacterial killing (S. aureus ATCC 29213 [1]; at MIC): 60 s; morphology and membrane integrity by SEM (S. aureus ATCC 29213 [2]; at its MIC for 30 min): wrinkles, disrupted membrane integrity, and leakage of cell contents; morphology and internal structure by TEM (S. aureus ATCC 29213 [2]; treatment for 30 min): the membrane of S. aureus was damaged, and a substantial outflow of cytoplasm was observed; MIC L. rhamnosus 1.0385 (L. rhamnosus 1.0385): >64 µM; MIC L. rhamnosus 1.0936 (L. rhamnosus 1.0936): >64 µM; MIC L. rhamnosus 7469 (L. rhamnosus 7469): >64 µM; MIC S. aureus 29213 (S. aureus 29213 [3]): 8 µM (≈ 13 µg/mL); MIC S. aureus 25923 (S. aureus 25923): 8 µM (≈ 13 µg/mL); PI uptake (PI fluorescence) [4]: rapidly disrupted the bacterial membrane and caused PI uptake; MIC MRSA 43300 (MRSA 43300): 8 µM (≈ 13 µg/mL); MIC against S. aureus 29213, FeCl3 (S. aureus 29213 [5]; 4 μM FeCl3): 16 µM; MIC against S. aureus 29213, NH4Cl (S. aureus 29213 [5]; 6 μM NH4Cl): 8 µM; MIC against S. aureus 29213, ZnCl2 (S. aureus 29213 [5]; 8 μM ZnCl2): 4 µM; MIC against S. aureus 29213, MgCl2 (S. aureus 29213 [5]; 1 mM MgCl2): 8 µM; MIC against S. aureus 29213, CaCl2 (S. aureus 29213 [5]; 2 mM CaCl2): 16 µM; MIC against S. aureus 29213, KCl (S. aureus 29213 [5]; 4.5 mM KCl): 8 µM; MIC against S. aureus 29213, NaCl (S. aureus 29213 [5]; 150 mM NaCl): 8 µM
